In the supplement of paper PMC11451515:

Assays:
Assay in all cases: AUC of viability dose-response curve (% viability x log10 dose units); higher = less sensitive
Details in all cases: 48 h
NOMO1 = system: NOMO1
Procedure, shortened: (§1)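 Seeding of medium-adapted leukemia cells was at 500 or 1000 cells/well in 1536-well plates, followed by 48 h at 37°C with library compounds in DMSO at 11 threefold doses from 47 μM to 0.79 nM. CellTiter-Glo One luminescence was normalised per plate to DMSO and cell-free wells and fitted as a four-parameter log-logistic function of log10 dose. Area under the curve was integrated by trapezoidal rule, with curves exceeding full viability scaled and curves failing quality control removed.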

P12-Ichikawa = system: P12-Ichikawa
Procedure, shortened: as §1

SEM cells = system: SEM cells
Procedure, shortened: as §1

[1] = RPMI 5 mM glucose + 10% dialyzed FBS

SMILES | AUC of viability dose-response curve (NOMO1; HPLM + 10% dialyzed FBS) | AUC of viability dose-response curve (NOMO1; RPMI 5 mM glucose + 10% FBS) | AUC of viability dose-response curve (NOMO1; [1]) | AUC of viability dose-response curve (P12-Ichikawa; HPLM + 10% dialyzed FBS) | AUC of viability dose-response curve (P12-Ichikawa; RPMI 5 mM glucose + 10% FBS) | AUC of viability dose-response curve (P12-Ichikawa; [1]) | AUC of viability dose-response curve (SEM cells; HPLM + 10% dialyzed FBS) | AUC of viability dose-response curve (SEM cells; RPMI 5 mM glucose + 10% FBS) | AUC of viability dose-response curve (SEM cells; [1])
CC(C)OC(=O)CCC/C=C\C[C@@H]1[C@@H](/C=C/[C@@H](O)COc2cccc(C(F)(F)F)c2)[C@H](O)C[C@@H]1O | 443 | 448 | 450 | 459 | 439 | 446 | 455 | 452 | 434
C1Cc2[nH]nc(-c3nn[nH]n3)c2C1 | 460 | 460 | 456 | 470 | 458 | 472 | 464 | 438 | 445
C[C@@H]1C[C@H]2[C@@H]3\C=C(C)/C4=C/C5=C(C[C@]4(C)[C@H]3[C@@H](O)C[C@]2(C)[C@@]1(O)C(=O)COC(C)=O)C=N[N]5C6=CC=CC=C6 | 442 | 411 | 449 | 323 | 264 | 251 | 304 | 277 | 258
CN1C(=O)\C(=C/C(=C1/NC2=C(F)C=C(I)C=C2)C(=O)NOCCO)C | 257 | 281 | 253 | 441 | 423 | 451 | 398 | 403 | 342
COc1cc2nccc(Oc3ccc(NC(=O)Nc4ccc(F)cc4F)c(F)c3)c2cc1OC | 413 | 414 | 429 | 419 | 401 | 395 |  |  | 
C[N]1C=NC=C1[C@@](N)(C2=CC=C(Cl)C=C2)C3=CC=C4N(C)C(=O)\C=C(\C5=CC=CC(=C5)Cl)C4=C3 | 398 | 430 | 401 | 377 | 352 | 376 | 284 | 279 | 342
NC(=O)c1ccc(-c2nc(-c3ccc4c(c3)OCCO4)c(-c3ccccn3)[nH]2)cc1 | 449 | 460 | 473 | 470 | 459 | 473 | 451 | 462 | 416
C[C@H]1CN(C[C@@H](C)O1)CC(=O)NC2=CC=C3SC4=C(CC3=C2)C=CC=C4\C5=C\C(=O)\C=C(/O5)N6CCOCC6 | 397 | 439 | 433 |  |  |  |  |  | 
COc1nc(-c2ccc3c(c2)OCO3)n(-c2ccc(NC(=O)CSc3ccccc3)cc2)n1 | 440 | 449 | 455 | 470 | 454 | 428 | 457 | 443 | 453
FC(F)(F)c1ccc(Nc2nc3cc(Oc4ccnc(-c5ncc(C(F)(F)F)[nH]5)c4)ccc3[nH]2)cc1 | 472 | 466 | 476 | 465 | 460 | 458 | 442 | 439 | 420
O=C(Nc1ccc(OC(F)(F)F)cc1)c1sccc1NCc1ccnc2ccccc12 | 346 | 388 | 395 | 295 | 351 | 363 | 373 | 359 | 395
Cc1c[nH]c(/C=C2\C(=O)Nc3ccccc32)c1CCC(=O)O | 399 | 440 | 428 | 436 | 413 | 390 |  |  | 
C=C(C)[C@@H]1CC[C@]2(C)CC[C@]3(C)[C@H](CC[C@@H]4[C@@]5(C)CC[C@H](O)C(C)(C)[C@@H]5CC[C@]43C)[C@@H]12 | 444 | 466 | 446 | 458 | 467 | 459 |  |  | 
CN(N=O)C(=O)N[C@H]1C(O)OC(CO)[C@@H](O)[C@@H]1O (stereo not given in full) | 428 | 391 | 375 | 397 | 383 | 368 |  |  | 
Cc1ccc(NC(=O)C2(c3ccc4c(c3)OC(F)(F)O4)CC2)nc1-c1cccc(C(=O)O)c1 | 252 | 246 | 264 | 268 | 253 | 260 | 241 | 202 | 232
CCC1=C[C@@H]2CN(C1)Cc1c([nH]c3ccccc13)[C@@](C(=O)OC)(c1cc3c(cc1OC)N(C)[C@H]1[C@@](O)(C(=O)OC)[C@H](OC(C)=O)[C@]4(CC)C=CCN5CC[C@]31[C@@H]54)C2 | 256 | 259 | 260 | 202 | 182 | 238 | 244 | 187 | 241
Clc1ccc(C2(c3ccc(-c4cn[nH]c4)cc3)CCNCC2)cc1 | 427 | 389 | 395 | 419 | 369 | 390 | 384 | 445 | 388
NC1CCC(N[C@@H]2C[C@H]2c2ccccc2)CC1 (stereo not given in full) | 450 | 456 | 450 | 463 | 461 | 467 | 409 | 444 | 441
CCC[C@@H]1C[C@@H](C(=O)N[C@@H]([C@H]2O[C@H](SC)[C@H](O)[C@@H](O)[C@H]2O)[C@@H](C)O)N(C)C1.Cl | 428 | 463 | 457 | 448 | 438 | 399 | 471 | 473 | 465
O=C(NC1CCNCC1)c1n[nH]cc1NC(=O)c1c(Cl)cccc1Cl | 321 | 332 | 324 | 345 | 341 | 357 | 319 | 323 | 326
CC/1=C/N([C@@H]2C[C@@H](O)[C@H](CO)O2)C(=O)NC1=O | 453 | 408 | 413 | 388 | 353 | 338 |  |  | 
CCNC(=O)C[C@@H]1\N=C(C2=CC=C(Cl)C=C2)/C3=C(C=CC(=C3)OC)[N]4C(=NN=C14)C | 373 | 392 | 388 | 395 | 396 | 388 | 311 | 299 | 303
COc1cc2nccc(Oc3ccc(NC(=O)Nc4cc(C)on4)c(Cl)c3)c2cc1OC | 471 | 449 | 467 | 458 | 453 | 455 |  |  | 

SMILES | AUC of viability dose-response curve (NOMO1; HPLM + 10% dialyzed FBS) | AUC of viability dose-response curve (NOMO1; RPMI 5 mM glucose + 10% FBS) | AUC of viability dose-response curve (NOMO1; [1]) | AUC of viability dose-response curve (P12-Ichikawa; HPLM + 10% dialyzed FBS) | AUC of viability dose-response curve (P12-Ichikawa; RPMI 5 mM glucose + 10% FBS) | AUC of viability dose-response curve (P12-Ichikawa; [1]) | AUC of viability dose-response curve (SEM cells; HPLM + 10% dialyzed FBS) | AUC of viability dose-response curve (SEM cells; RPMI 5 mM glucose + 10% FBS) | AUC of viability dose-response curve (SEM cells; [1])
N[C@@H](C(=O)N[C@H]1[C@H]2SC\C(=C(/N2C1=O)C(O)=O)Cl)C3=CC=CC=C3 | 462 | 430 | 441 | 462 | 457 | 466 | 436 | 465 | 468
CCOC(=O)C/1=C(C)/NC(=S)NC1C2=CC=CC(=C2)O (stereo not given) | 286 | 272 | 300 | 251 | 246 | 281 | 242 | 242 | 263
CN1CCCN(C(=O)c2cccc(-c3ccc(/C=C4/C(=O)Nc5ccc(Cl)cc54)o3)c2)CC1 | 399 | 446 | 436 | 419 | 372 | 396 | 362 | 324 | 332
CO/N=C(/C(=O)N[C@@H]1C(=O)N2C(C(=O)O)=C(Cn3ccc(=N)n3CCO)CS[C@H]12)c1csc(N)n1 | 421 | 446 | 459 | 460 | 452 | 463 | 413 | 461 | 467
C[C@]\1(CCS\C(=N1)N)C2=CC(=C(F)C=C2F)C3=CN=CN=C3 | 378 | 359 | 383 | 411 | 420 | 435 | 441 | 390 | 429
COC1=CC=C2Nc3cc(Cl)ccc3C(N=C3C=C(CN4CCCC4)C(=O)C(CN4CCCC4)=C3)=C2N1 | 472 | 459 | 475 | 472 | 468 | 469 | 435 | 449 | 437
CC(=O)N1CCN(c2ccc(OCc3nn(C)c(C)c3-c3cccc4c(CCCOc5cc(C)c(Cl)c(C)c5)c(C(=O)O)n(Cc5cccnc5)c34)cc2)CC1 | 469 | 471 | 457 | 461 | 459 | 467 | 453 | 413 | 441
CN(C)Cc1ccc(-c2nc3cccc4c3n2CCNC4=O)cc1 | 464 | 458 | 452 | 461 | 463 | 466 | 455 | 459 | 462
CCOC(=O)Nc1ccc(NCc2ccc(F)cc2)cc1N | 424 | 448 | 445 | 452 | 464 | 451 | 459 | 467 | 470
O=C/1\C=C(/OC(=C1)/C2=C3SC4=C(SC3=CC=C2)C=CC=C4)N5CCOCC5 |  |  |  |  |  |  | 417 | 409 | 411
O=C1Nc2ccccc2/C1=C1\Nc2ccccc2C1=O | 448 | 447 | 442 | 459 | 467 | 471 |  |  | 
O=C1NC(=O)[C@@H](c2cn3c4c(cccc24)CCC3)[C@@H]1c1c[nH]c2ccccc12 | 367 | 363 | 379 | 358 | 344 | 380 | 345 | 317 | 348
O=C(O)c1ccccc1C(=O)Nc1ccc(-c2ccccc2)cc1 | 462 | 463 | 460 | 468 | 461 | 469 | 449 | 457 | 456
O=C(O)[C@H](Cc1c[nH]c2ccccc12)N1C(=O)c2ccccc2C1=O | 440 | 426 | 470 | 474 | 462 | 460 | 445 | 440 | 405
CCCCCCCCCCCC(CC1OC(=O)C1CCCCCC)OC(=O)C(CC(C)C)NC=O (stereo not given) | 452 | 461 | 456 | 443 | 440 | 443 | 407 | 343 | 391
CC[C@H]1OC(=O)[C@H](C)[C@@H](O[C@H]2C[C@@](C)(OC)[C@@H](O)[C@H](C)O2)[C@H](C)[C@@H](O[C@@H]2O[C@@H](C)C[C@H](N(C)C)[C@H]2O)[C@](C)(O)C[C@@H](C)C(=O)[C@H](C)[C@@H](O)[C@]1(C)O | 423 | 403 | 429 | 402 | 402 | 411 | 401 | 418 | 400
COc1cc2c(N3CCN(C(=O)Nc4ccc(OC(C)C)cc4)CC3)ncnc2cc1OCCCN1CCCCC1 | 395 | 357 | 371 | 406 | 360 | 369 |  |  | 
Cl.c1cnc2cc3c(cc2n1)C1CNCC3C1 | 465 | 470 | 467 | 474 | 444 | 467 | 458 | 444 | 461
Cc1ccc(NC(=O)c2ccc(CN3CCN(C)CC3)cc2)cc1Nc1nccc(-c2cccnc2)n1 | 477 | 459 | 454 | 460 | 470 | 477 | 465 | 468 | 467
COc1cc(N2CCC(O)CC2)ccc1Nc1cc(Nc2ccccc2[S+](=O)([O-])C(C)C)c2cc[nH]c2n1 | 331 | 414 | 404 | 411 | 392 | 400 |  |  | 
CC[C@]1(O)C[C@H]2CN(CCC3=C([NH]C4=C3C=CC=C4)[C@@](C2)(C(=O)OC)C5=CC6=C(C=C5OC)N(C=O)[C@H]7[C@](O)([C@H](OC(C)=O)[C@]8(CC)\C=C/C[N@@]9CC[C@]67[C@H]89)C(=O)OC)C1 | 272 | 239 | 264 | 185 | 180 | 224 |  |  | 
O=C1\C=C(/OC2=C1C=CC=C2C3=CC=CC=C3)N4CCOCC4 | 410 | 392 | 390 | 432 | 393 | 397 |  |  | 
